Results published in patent US8058243B2, “Method for treating a brain cancer with ifenprodil” (HSC Research and Development Limited Partnership, priority 2006, dated 2011).
Like-named read-outs stand apart in the source and are kept apart here. Each block holds one compound with its values, some of them ahead of it.

Columns and labels:
[1] = test system: murine neural precursor cells (neurosphere cultures); test: HTS of LOPAC library against secondary neurosphere cultures, MTT proliferation assay at 3 μM, day 7 (z score, P value); format: cell-based, mouse
[2] = test system: mouse NSC neurosphere cultures; test: Dose-response curves and EC50, neurosphere MTT proliferation, 7 days; format: cell-based
[3] = test system: ptc1+/− medulloblastoma precursor cells (neurosphere cultures); test: Medulloblastoma tumor sphere MTT proliferation EC50; format: cell-based, mouse
Excerpt: (§1) Astrocyte Screen and Neurosphere Selectivity Assessment. […] Murine Medulloblastoma Generation and Culture. […] Flow Cytometry. […] Results

[4] = test system: Ptch1+/− Trp53−/− medulloblastoma neurosphere cultures; test: Tumor sphere MTT proliferation EC50; format: cell-based, mouse; details: cultures derived from mouse cerebellar tumor samples; read-out: Ptch1+/− Trp53−/− neurosphere EC50
Excerpt: as §1

[5] = test system: neural precursors derived from human fetal CNS tissue (hFetal); test: Human fetal neural precursor EC50; format: cell-based
[6] = test system: hGBM1 precursors (WHO grade IV GBM); test: Human glioblastoma precursor EC50 (hGBM1); format: cell-based
[7] = test system: hGBM2 precursors (WHO grade IV GBM, giant cell variant); test: Human glioblastoma precursor EC50 (hGBM2); format: cell-based
[8] = test system: nestin expression in NPCs; test: Flow cytometric analysis of nestin in NPCs; format: cell-based, mouse
[9] = test system: NSC fraction of neurosphere cultures; details: 7 day pretreatment at estimated EC75 (apomorphine EC50); 2,000 or 1,000 cells
[10] = cited from earlier work
[11] = cultures derived from mouse cerebellar tumor samples, read-out: Ptch1+/− neurosphere EC50

Structure (SMILES): Nc1ccc(CCN2CCN(c3cccc(C(F)(F)F)c3)CC2)cc1 [PAPP (14), p-aminophenethyl-m-trifluoromethylphenyl piperazine]
- Activity [1]: yes
- Z Score [1]: −10.73
- Z score [1]: −10.728
- EC50 ([2]; Table 8, read-out: Neurosphere EC50): 31 nM
- EC50 ([2]; normal mouse neurosphere cultures, MTT, 7 days, read-out: Neurosphere EC50): 31 nM
- EC50 ([2]; read-out: EC 50% Neurosphere, Table 5): 31 nM
- EC50 [3, 11]: 169 nM
- EC50 ([3]; ptc1+/− medulloblastoma derived neurospheres, read-out: Medulloblastoma Neurosphere EC50): 169 nM
- EC50 [4]: 97 nM
- EC50 [5]: 220 nM
- EC50 [6]: 1870 nM
- EC50 [7]: 310 nM
- expression of the immature NPC marker nestin [8]: substantially decreased
- secondary neurosphere formation upon re-culture in the absence of drug (replating efficiency) [9]: reduction in replating efficiency

- EC50 ([3]; Mus musculus, ptc1+/− medulloblastoma derived neurospheres, read-out: Medulloblastoma Neurosphere EC50): 168 nM
- EC50 [3, 11]: 168 nM
- EC50 ([6]; Homo sapiens): 14600 nM
- EC50 ([7]; Homo sapiens): 310 nM
Structure (SMILES): CN1CCc2cccc3c2[C@H]1Cc1ccc(O)c(O)c1-3 [(R)-(−)-Apomorphine (6), (R)-(−)-Apomorphine]
- Activity [1]: yes
- Z Score ([1]; LOPAC library screen, 3 μM, MTT, secondary neurosphere cultures, day 7): −11.27
- Z score ([1]; LOPAC primary screen, neurosphere MTT proliferation, 3 μM, day 7): −11.274
- EC50 ([2]; 168 h, normal mouse neurosphere cultures, MTT, 7 days, read-out: Neurosphere EC50): 350 nM
- EC50 ([2]; Mus musculus, read-out: EC 50% Neurosphere, Table 5): 350 nM
- EC50 ([2]; Mus musculus, Table 8, read-out: Neurosphere EC50): 350 nM
- Effective in vivo concentrations [10]: 6 to 7 µM
